Reference: patent publication US7741244B2, “Fungicide compositions” (priority 2002, dated 2010)

Legend:
White mold = test: PDA plate inhibition, caprylic acid and organic acids (Example 13); assay type: cell-based; details: PDA plates
Botrytis cinerea [1] = test: as above; assay type: cell-based; details: PDA plates
Botrytis cinerea [2] = test: Inhibition of fungal infections on fresh raspberries (Example 9); assay type: in vivo; details: raspberries (Heritage), 60 s dip
Late blight = assay type: cell-based; details: PDA plates; day 2 after inoculum; control plate = 100%
Septoria = details: PDA plates, control plate = 100%

O=C(O)CC(O)(CC(=O)O)C(=O)O [0.010% citric acid, citric acid]
Inhibition (%) of white mold (White mold): 0% | Inhibition (%) of Botrytis cinerea (Botrytis cinerea [1]): 0%

O=C(O)C(O)C(O)C(=O)O (stereo not shown) [0.75% tartaric acid, tartaric acid]
Infected berries (% of total) Day 2 (Botrytis cinerea [2]; day 2): 31% | Infected berries (% of total) Day 3 (Botrytis cinerea [2]; day 3): 58% | Infected berries (% of total) Day 4 (Botrytis cinerea [2]; day 4): 86% | Infected berries (% of total) Day 6 (Botrytis cinerea [2]; day 6): 92% | Infected berries (% of total) Day 8 (Botrytis cinerea [2]; day 8): 92% | Infected berries (% of total) Day 10 (Botrytis cinerea [2]; day 10): 92% | Infected berries (% of total) Day 12 (Botrytis cinerea [2]; day 12): 92%

O=C(O)CO [glycolic acid]
Measurement of fungal growth, Late blight Day 2 (Late blight): 79% | Inhibition (%) of white mold (White mold): 0% | Inhibition (%) of Botrytis cinerea (Botrytis cinerea [1]): 0% | Measurement of fungal growth, Septoria Day 2 (Septoria; day 2 after inoculum): 80% | Measurement of fungal growth, Septoria Day 3 (Septoria; day 3 after inoculum): 90%

O=C(O)CCC(=O)O [0.010% succinic acid, succinic acid]
Inhibition (%) of white mold (White mold): 0% | Inhibition (%) of Botrytis cinerea (Botrytis cinerea [1]): 0%
